From patent US7459444B2, “Inhibitors of chymase” (Janssen Pharmaceutica N.V., priority 2004, dated 2008)

Molecular target: T1, human skin chymase (Homo sapiens, UniProt P23946)
T1 construct: using human skin chymase (Cortex Biochem); purchased Cortex Biochem
T1 sequence (P23946 22-247): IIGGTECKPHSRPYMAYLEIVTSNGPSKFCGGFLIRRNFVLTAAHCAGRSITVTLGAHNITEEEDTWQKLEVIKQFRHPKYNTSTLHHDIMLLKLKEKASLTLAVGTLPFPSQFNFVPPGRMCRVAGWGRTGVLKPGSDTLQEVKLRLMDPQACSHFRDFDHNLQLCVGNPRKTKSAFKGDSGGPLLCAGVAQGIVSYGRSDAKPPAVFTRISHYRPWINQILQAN
Test: Enzyme-catalyzed hydrolysis assay (chymase inhibition)
Type: biochemical
Settings: 10 nM enzyme, 0.7 mM Suc-Ala-Ala-Pro-Phe-pNa, pH 8.0, 37° C., 30 minutes
Description: Enzyme-catalyzed hydrolysis rates were measured spectro-photometrically using human skin chymase (Cortex Biochem), a chromogenic substrate (Suc-Ala-Ala-Pro-Phe-pNa) (Bachem) in aqueous buffer (450 mM Tris, 1800 mM NaCl, pH 8.0), and a microplate reader (Molecular Devices). […] Percent inhibition was calculated by comparing the initial reaction slopes of the samples without inhibitor to those with inhibitor. IC50 values were determined using a four parameter fit logistics model. The term “NT” indicates a compound that was not tested.

Row | Compound | IC50 [µM]
1 | CP(=O)(O)C(C(=O)N/C=C/c1cccc(OC(F)(F)F)c1)c1csc2ccc(Cl)cc12 (stereo not shown) [Cpd 153] | 0.06 ± 0.01
2 | CP(=O)(O)C(C(=O)N/C=C/c1ccccc1O)c1csc2ccc(Cl)cc12 (stereo not shown) [Cpd 149, {(5-Chloro-benzo[b]thiophen-3-yl)-[2-(2-hydroxy-phenyl)-vinylcarbamoyl]-methyl}-methyl-phosphinic acid] | 0.043
3 | ({3-[(1-Benzoyl-piperidin-4-ylamino)-methyl]-naphthalen-2-ylcarbamoyl}-naphthalen-1-yl-methyl)-phosphonic acid [Cpd 44] | 0.35 ± 0.22
4 | Nc1nc2ccc(NC(=O)C(c3csc4ccc(Cl)cc34)P(=O)(O)O)cc2s1 (stereo not shown) [Cpd 69, [(5-Chloro-benzo[b]thiophen-3-yl)-(2-amino-4-benzothioazol-6-ylcarbamoyl)-methyl]-phosphonic acid] | 0.93 ± 0.95
5 | O=C(NC=Cc1ccc(C(F)(F)F)cc1)C(c1csc2ccc(Cl)cc12)P(=O)(O)O (stereo not shown) [Cpd 81] | 1.7 ± 0.21
6 | O=C(Nc1ccc2cc(Br)ccc2c1)C(c1csc2ccc(Cl)cc12)P(=O)(O)O (stereo not shown) [Cpd 67] | 0.92 ± 0.25
7 | O=C(NC=Cc1cc(F)cc(F)c1)C(c1csc2ccc(Cl)cc12)P(=O)(O)O (stereo not shown) [Cpd 199] | 0.0018
8 | CP(=O)(O)C(C(=O)N/C=C/c1ccccc1NC(=O)NC(N)=O)c1csc2ccc(Cl)cc12 (stereo not shown) [Cpd 159] | 3 ± 0.19
9 | COc1cccc(/C=C/NC(=O)C(c2csc3ccc(Cl)cc23)P(C)(=O)O)c1OC (stereo not shown) [Cpd 165] | 0.078 ± 0.03
10 | COc1ccccc1/C=C/NC(=O)C(c1csc2ccc(Cl)cc12)P(C)(=O)O (stereo not shown) [Cpd 145] | 0.035 ± 0.02
11 | O=C(O)C(C(=O)Nc1ccc2ccccc2c1)c1csc2ccc(Cl)cc12 (stereo not shown) [Cpd 84, [(5-Chloro-benzo[b]thiophen-3-yl)-(naphthalen-2-ylcarbamoyl)-methyl]-carboxylic acid] | 1.75 ± 0.285
12 | Cn1cc(C(C(=O)Nc2ccc3ccccc3c2)P(=O)(O)O)c2cc(C#N)ccc21 (stereo not shown) [Cpd 65] | 0.84 ± 0.19
13 | CP(=O)(O)C(C(=O)NC=Cc1ccccc1[N+](=O)[O-])c1csc2ccc(Cl)cc12 (stereo not shown) [Cpd 147] | 1.44 ± 0.48
14 | COCCCP(=O)(O)C(C(=O)Nc1ccc2ccccc2c1)c1csc2ccc(Cl)cc12 (stereo not shown) [Cpd 34] | 0.22 ± 0.01
15 | O=C(Nc1ccc2sccc2c1)C(c1csc2ccc(Cl)cc12)P(=O)(O)O (stereo not shown) [Cpd 55] | 0.52 ± 0.51
16 | Cn1cc(C(C(=O)Nc2ccc3ccccc3c2)P(=O)(O)O)c2cccnc21 (stereo not shown) [Cpd 116] | 5.4
17 | O=C(Nc1ccc2ccccc2c1)C(c1csc2ccc(Br)cc12)P(=O)(O)O (stereo not shown) [Cpd 23, [(5-Bromo-benzo[b]thiophen-3-yl)-(naphthalen-2-ylcarbamoyl)-methyl]-phosphonic acid] | 0.1 ± 0.03
18 | O=C(Nc1ccc2ccccc2c1)C(CO)c1csc2ccc(Cl)cc12 (stereo not shown) [Cpd 136, 2-(5-Chloro-benzo[b]thiophen-3-yl)-3-hydroxy-N-naphthalen-2-yl-propionamide] | 8.63 ± 0.81
19 | O=C(N/C=C/c1cccnc1)C(c1csc2ccc(Cl)cc12)P(=O)(O)O (stereo not shown) [Cpd 25] | 0.109 ± 0.03
20 | Cc1ccc2scc(C(C(=O)Nc3ccc4ccccc4c3)P(=O)(O)O)c2c1 (stereo not shown) [Cpd 5] | 0.019 ± 0.005
21 | O=C(Nc1ccc2ccccc2c1)C(c1nnn[nH]1)c1csc2ccc(Cl)cc12 (stereo not shown) [Cpd 88, 2-(5-Chloro-benzo[b]thiophen-3-yl)-n-naphthalen-2-yl-2-(1h-tetrazol-5-yl)-acetamide] | 2.04 ± 0.19
22 | O=C(Nc1ccc2ncsc2c1)C(c1csc2ccc(Cl)cc12)P(=O)(O)O (stereo not shown) [Cpd 30] | 0.17 ± 0.01
23 | CP(=O)(O)C(C(=O)NC=Cc1ccccc1NC(N)=O)c1csc2ccc(Cl)cc12 (stereo not shown) [Cpd 158, {(5-Chloro-benzo[b]thiophen-3-yl)-[2-(2-ureido-phenyl)-vinylcarbamoyl]-methyl}-methyl-phosphinic acid] | 6 ± 1.9
24 | CP(=O)(O)C(C(=O)NC=Cc1ccccc1N)c1csc2ccc(Cl)cc12 (stereo not shown) [Cpd 151, [[2-(2-Amino-phenyl)-vinylcarbamoyl]-(5-chloro-benzo[b]thiophen-3-yl)-methyl]-methyl-phosphinic acid] | 0.4 ± 0.12
25 | CP(=O)(O)C(C(=O)N/C=C/c1cccc(F)c1)c1csc2ccc(Cl)cc12 (stereo not shown) [Cpd 15] | 0.052 ± 0.015
26 | COc1cc(/C=C/NC(=O)C(c2csc3ccc(Cl)cc23)P(C)(=O)O)cc(OC)c1 (stereo not shown) [Cpd 168] | 0.0059 ± 0.01
27 | CP(=O)(O)C(C(=O)N/C=C/c1ccccn1)c1csc2ccc(Cl)cc12 (stereo not shown) [Cpd 150] | 0.091 ± 0.02

Second part, the compound after the results:

Row | IC50 [µM] | Compound
28 | 2.75 | O=C(Nc1ccccc1)OCc1cc2ccccc2cc1NC(=O)C(c1cccc2ccccc12)P(=O)(O)O (stereo not shown) [Cpd 94]
29 | 4.62 | CN(Cc1ccccc1)C(=O)c1cc2ccccc2cc1NC(=O)C(c1cccc2ccccc12)P(=O)(O)O (stereo not shown) [Cpd 111]
30 | 6.7 | O=C(Nc1cc2ccccc2cc1CNC1CCCC1)C(c1cccc2ccccc12)P(=O)(O)O (stereo not shown) [Cpd 124]
31 | 1.4 ± 0.6 | COC(=O)c1cc2ccccc2cc1NC(=O)C(c1cccc2ccccc12)P(=O)(O)O (stereo not shown) [Cpd 75, 3-(2-Naphthalen-1-yl-2-phosphono-acetylamino)-naphthalene-2-carboxylic acid methyl ester]
32 | 5.72 ± 0.013 | CP(=O)(O)C(C(=O)Nc1ccc2ccccc2c1)c1c(C(=O)O)sc2ccccc12 (stereo not shown) [Cpd 118]
33 | 4.3 | O=C(Nc1ccc2c(c1)Cc1ccccc1-2)C(c1cccc2ccccc12)P(=O)(O)O (stereo not shown) [Cpd 106]
34 | 0.63 ± 0.13 | Cn1cc(C(C(=O)Nc2ccc3ccccc3c2)P(=O)(O)O)c2cccc(Cl)c21 (stereo not shown) [Cpd 58]
35 | 6.6 | COC(=O)COc1cc2ccccc2cc1NC(=O)C(c1cccc2ccccc12)P(=O)(O)O (stereo not shown) [Cpd 123]
36 | 8.8 | CC(C)OC(=O)c1cc2ccccc2cc1NC(=O)C(c1cccc2ccccc12)P(=O)(O)O (stereo not shown) [Cpd 139]
37 | 4.74 ± 1.65 | CN(CCCC1c2ccccc2C=Cc2ccccc21)Cc1cc2ccccc2cc1NC(=O)C(c1cccc2ccccc12)P(=O)(O)O (stereo not shown) [Cpd 112]
38 | 2.15 | CC1CCCC(NCc2cc3ccccc3cc2NC(=O)C(c2cccc3ccccc23)P(=O)(O)O)C1 (stereo not shown) [Cpd 90]
39 | 1.43 ± 0.451 | O=C(Nc1ccc2ccccc2c1)C(c1csc2cc(Br)ccc12)P(=O)(O)O (stereo not shown) [Cpd 76]
40 | 1.3 ± 0.61 | O=C(NCc1ccccc1)OCc1cc2ccccc2cc1NC(=O)C(c1cccc2ccccc12)P(=O)(O)O (stereo not shown) [Cpd 72, [(3-Benzylcarbamoyloxymethyl-naphthalen-2-ylcarbamoyl)-naphthalen-1-yl-methyl]-phosphonic acid]
41 | 0.49 ± 0.16 | COc1ccc(CCCP(=O)(O)C(C(=O)Nc2ccc3ccccc3c2)c2csc3ccc(Cl)cc23)cc1 (stereo not shown) [Cpd 53]
42 | 0.235 ± 0.045 | COc1ccc(C2CCN(C(=O)c3sc4ccccc4c3C(C(=O)Nc3ccc4ccccc4c3)P(C)(=O)O)CC2)cc1 (stereo not shown) [Cpd 35]
43 | 0.421 ± 0.151 | O=C(Nc1ccc2ccccc2c1)C(c1csc2ccc(Cl)cc12)P(=O)(O)CCCc1ccccc1 (stereo not shown) [Cpd 48]

Row | IC50 [µM] | Compound
44 | 1 ± 0.3 | O=C(Nc1ccc2ccccc2c1)C(c1csc2ccc(-c3ccccc3)cc12)P(=O)(O)O (stereo not shown) [Cpd 71, [(5-phenyl-benzo[b]thiophen-3-yl)-(naphthalen-2-ylcarbamoyl)-methyl]-phosphonic acid]
45 | 4.45 | O=C(Nc1cc2ccccc2cc1NCCCCCc1ccccc1)C(c1cccc2ccccc12)P(=O)(O)O (stereo not shown) [Cpd 110]
46 | 0.35 ± 0.07 | O=C(Nc1ccc2ccccc2c1)C(c1csc2ccc(Cl)cc12)P(=O)(O)CCCc1ccc(O)cc1 (stereo not shown) [Cpd 43]
47 | 2.9 | Cn1cc(C(C(=O)Nc2ccc3ccccc3c2)P(=O)(O)O)c2cc(-c3ccc(F)cc3)ccc21 (stereo not shown) [Cpd 98, [[5-(4-Fluoro-phenyl)-1-methyl-1H-indol-3-yl]-(naphthalen-2-ylcarbamoyl)-methyl]-phosphonic acid]
48 | 9.54 ± 4.2 | CN(Cc1ccccc1)Cc1cc2ccccc2cc1NC(=O)C(c1cccc2ccccc12)P(=O)(O)O (stereo not shown) [Cpd 142]
49 | 5.94 ± 1.69 | O=C(Nc1cc2ccccc2cc1OCc1ccccc1)C(c1cccc2ccccc12)P(=O)(O)O (stereo not shown) [Cpd 122, [(3-Benzyloxy-naphthalen-2-ylcarbamoyl)-naphthalen-1-yl-methyl]-phosphonic acid]
50 | 3 ± 1.43 | O=C(Nc1cc2ccccc2cc1C(=O)N1CCC(n2nnc3ccccc32)CC1)C(c1cccc2ccccc12)P(=O)(O)O (stereo not shown) [Cpd 100]
51 | 7.4 | O=C(Nc1ccc2[nH]ccc2c1)C(c1cccc2ccccc12)P(=O)(O)O (stereo not shown) [Cpd 129]
52 | 9.5 | O=C(Nc1cc2ccccc2cc1NC(=O)C(c1cccc2ccccc12)P(=O)(O)O)C1CCN(C(=O)c2ccc3ccccc3c2)CC1 (stereo not shown) [Cpd 141, [(3-{[1-(Naphthalene-2-carbonyl)-piperidine-4-carbonyl]-amino}-naphthalen-2-ylcarbamoyl)-naphthalen-1-yl-methyl]-phosphonic acid]
53 | 4.1 | O=C(Nc1ccc2ccccc2c1)OCc1cc2ccccc2cc1NC(=O)C(c1cccc2ccccc12)P(=O)(O)O (stereo not shown) [Cpd 105]
54 | 0.83 ± 0.08 | O=C(Nc1cc2ccccc2s1)C(c1cccc2ccccc12)P(=O)(O)O (stereo not shown) [Cpd 64]
55 | 0.663 | O=C(Nc1cc2ccccc2cc1C(=O)N1CCC(n2c(=O)[nH]c3ccc(Cl)cc32)CC1)C(c1cccc2ccccc12)P(=O)(O)O (stereo not shown) [Cpd 60, ({3-[4-(6-Chloro-2-oxo-2,3-dihydro-benzoimidazol-1-yl)-piperidine-1-carbonyl]-naphthalen-2-ylcarbamoyl}-naphthalen-1-yl-methyl)-phosphonic acid]
56 | 1.6 | O=C(Nc1ccc2ncccc2c1)C(c1cccc2ccccc12)P(=O)(O)O (stereo not shown) [Cpd 79]
57 | 3.63 | O=C(Nc1cc2ccccc2cc1C(=O)N1CCC(S(=O)(=O)c2ccccc2)C1)C(c1cccc2ccccc12)P(=O)(O)O (stereo not shown) [Cpd 103]
58 | 2.7 | O=C(Nc1cc2ccccc2cc1C(=O)N1CCC(n2c(=O)[nH]c3ccccc32)CC1)C(c1cccc2ccccc12)P(=O)(O)O (stereo not shown) [Cpd 93]
